These results are taken from patent US20250017979A1, “METHODS AND COMPOSITIONS FOR IMPROVING IN VIVO SURVIVAL OF MIDBRAIN DOPAMINE NEURONS” (MEMORIAL SLOAN-KETTERING CANCER CENTER, priority 2022, published 2025).

One experiment concerns rodent GSK3β homologs. The settings on record: cited from earlier work.
In experiment [1] the test system is NURR1::H2B-GFP sorted neurons. As to the kind of experiment: TNFα / adalimumab treatment of day 25 NURR1::H2B-GFP sorted dopamine neurons in vitro (immunofluorescence, western blot, qRT-PCR). The class given is cell-based, human. As to conditions: co-treatment with TNFα and adalimumab (10 μg/ml), 24 hours. Background: A western blot detects proteins with antibodies after separation by electrophoresis.
Method: hESC differentiation toward DA neurons. Midbrain dopaminergic neuron differentiation was performed using H9 hESCs, which include Nurr1::GFP. hESCs were grown on VTN-N (Thermo Fisher Scientific)-coated 6-well plates in E8-essential medium. Cells were maintained at 37° C., 5% CO2. hESCs were differentiated with an optimized protocol from a previously reported study (Kim et al., 2021, Cell Stem Cell February 4; 28 (2): 343-355.c5; Riessland et al., 2019, Cell Stem Cell. October 3; 25 (4): 514-530.c8). At day 25 of differentiation from hPSCs iCas9/NURR1::GFP hPSC lines containing sgRNA-pool libraries and sgRNA for dTomato and p53 hPSCs, GFP and dTomato expressed dopamine neurons were sorted using flow cytometry associated cell sorting (FACS). […] TNF-α neutralizing antibody was employed either to co-injection (1 mg/ml) or in vitro cultured dopamine neuron (10 μg/ml).

Experiment [2] has as its system CD marker sorted dopamine neurons. As to the kind of experiment: 1-month survival of CD49e-low/CD184-high sorted dopamine neuron grafts in striatum of NSG mice, co-injection, stereology. The class given is in vivo. The protocol:
hESC differentiation toward DA neurons. Midbrain dopaminergic neuron differentiation was performed using H9 hESCs, which include Nurr1::GFP. hESCs were grown on VTN-N (Thermo Fisher Scientific)-coated 6-well plates in E8-essential medium. Cells were maintained at 37° C., 5% CO2. hESCs were differentiated with an optimized protocol from a previously reported study (Kim et al., 2021, Cell Stem Cell February 4; 28 (2): 343-355.c5; Riessland et al., 2019, Cell Stem Cell. October 3; 25 (4): 514-530.c8). At day 25 of differentiation from hPSCs iCas9/NURR1::GFP hPSC lines containing sgRNA-pool libraries and sgRNA for dTomato and p53 hPSCs, GFP and dTomato expressed dopamine neurons were sorted using flow cytometry associated cell sorting (FACS). The sorted hPSCs were either injected into mice or cultured for subsequent experiments until use. Furthermore, double sorting approach with CD49e-low and CD184-high was applied to enrich post-mitotic dopamine neuron at day 25 differentiation derived from hPSC using FACS, and sorted cells were used for transplantation and in vitro culture. TNF-α neutralizing antibody was employed either to co-injection (1 mg/ml) or in vitro cultured dopamine neuron (10 μg/ml).
Intracranial transplantation. hESCs-derived DA neurons that were sorted based on either NURR1::H2B-GFP or CD49e low and CD184 high were resuspended in 100,000+ cells/μL in neurobasal medium with 200 mM L-glutamine and 100 mM ascorbic acid (AA) transplantation medium (without human albumin or kedbumin 25%). […]
Stereological analysis. For short-term survival studies, unbiased stercological counts of NURR1::H2B-GFP DA neurons within the striatum (AP+0.5, ML+/−1.8, DV −3.4 to −3.3 from dura) were performed using stereological principles and analyzed with StereoInvestigator software (Microbrightfield, Williston, VT, USA), as previously described. […] For each tissue section analyzed, section thickness was assessed in each sampling site and guard zones of 1 μm were used at the top and bottom of each section. […]

Experiment [3] concerns amphetamine-induced rotation behaviors. As to the kind of experiment: D-amphetamine induced rotation assay in unilateral 6-OHDA lesioned PD mouse model after grafting. The class given is in vivo, NSG mice. The protocol:
(§1) 6-OHDA mouse model. Briefly, adult female and male NSG mice (6-12 weeks) were anesthetized with 1%-2% isoflurane mixed in oxygen. 1 μL 6-OHDA (3 mg/ml, in saline with 1% ascorbic acid) was directly injected into the right side of substantial nigra (anterior-posterior [AP]=−2.9 mm, lateral [ML]=1.1 mm, vertical [DV]=4.5 mm, from dura) with rate of 0.5-1 μL per minute to generate unilateral toxin Parkinsonian mouse model. Animals with amphetamine-induced rotation at >6 rotations per min were selected for cell transplantation 4 weeks after 6-OHDA-lesion surgery. Animals were randomly grouped and transplanted with CD sorted neurons vs. CD sorted neurons+adalimumab vs. PBS (sham surgery control).
d-amphetamine induced rotation behavior assays. Amphetamine-induced rotation tests were performed twice before transplantation, and 1, 2, 3, 4, 5, 6 months after transplantation. The mice were injected intraperitoneally with a d-amphetamine in saline (Sigma, 10 mg/kg). After 10 minutes, the rotation

Experiment [4] has as its system CD marker sorted dopamine neurons. Description: Histology and stereology of dopamine neuron grafts at 6 months in 6-OHDA mice. The class given is in vivo, NSG mice. On the procedure: as §1
Immunohistochemistry. Histology on tissues from mice was performed on frozen sections from xenografts. Mice were anesthetized with pentobarbital and transcardically perfused using heparinized (10 U/mL) PBS (pH 7.4), followed by 4% paraformaldehyde in PBS. The liquid is administered using peristaltic pump to control the rate of the solution delivery to the system. Tissues were post-fixed in ice cold 4% paraformaldehyde for 18 hours sharp and transferred to 30% sucrose until the tissue sink (typically 3-6 days post-), followed by snap freezing in O.C.T (Fisher Scientific, Pittsburgh, PA) or Neg-50 (Thermo Scientific). Brain tissues are all sectioned in 30 μm thick coronal sections using a cryostat and mounted onto a Superfrost plus microscope slides (Fisher Scientific). All the slides are stored at −80° C. for long-term until use. To process for immunolabeling, tissues are washed twice with 1×PBS, followed by permeabilization in 0.5% Triton X-100 in PBS for 10 minutes. Living cells in culture were directly fixed in 4% paraformaldehyde for 18 min, followed by 10 min permeabilization in 0.5% Triton X-100 in PBS. For labeling, cells or tissue sections were immunostained with primary antibodies of interest in 2% BSA in 0.25% Triton X-100 in PBS at 4° C. overnight. Next day appropriate Alexa Fluor secondary antibodies are conjugated at room temperature for 1 hr at a dilution of 1:1,000. Nuclei were counterstained by DAPI.
Stereological analysis. For short-term survival studies, unbiased stercological counts of NURR1::H2B-GFP DA neurons within the striatum (AP+0.5, ML+/−1.8, DV −3.4 to −3.3 from dura) were performed using stereological principles and analyzed with StereoInvestigator software (Microbrightfield, Williston, VT, USA), as previously described. […] For each tissue section analyzed, section thickness was assessed in each sampling site and guard zones of 1 μm were used at the top and bottom of each section. […] For analysis, at least 2-8 sections were evaluated for analysis. […]

Setting [5] is: 6 months old graft, TH+ population.
The mark [6] stands for this setting: 6 months post transplantation, vs PBS co-injection.

Turning to `Cc1c[nH]c(-c2cnc(NCCNc3ccc(C#N)cn3)nc2-c2ccc(Cl)cc2Cl)n1` [CHIR99021, 6-(2-(4-(2,4-dichlorophenyl)-5-(4-methyl-1H-imidazol-2-yl)pyrimidin-2-ylamino)ethylamino) nicotinonitrile], in the experiment on rodent GSK3β homologs, the “IC50 values against rodent GSK3β homologs” value is reported as “nanomolar”.
For adalimumab, the “TNFα-induced inductions of p53 and p53 downstream genes (p21, PUMA)” value in experiment [1] is reported as “abolished”. In experiment [2] (1 month post grafting, mean and S.E.M, n=5, p=0.01 vs PBS), the “Stereological counts of NURR1::GFP+ cells” value was 12,423 (mean)+1,859 (S.E.M) per 100,000 cells injected. Moreover, in experiment [2] (1 month post grafting, per 100,000 cells, mean, n=5, p=0.0085), the “volume of the graft” value is recorded as 0.1175 mm^3. Moreover, in experiment [2] (co-injection (1 mg/ml), vs PBS), the “survival of CD marker sorted dopamine neurons in vivo post-transplantation” value is on record as “significantly improved”. In addition, the “functional recovery of amphetamine-induced rotation” value in experiment [3] (6 months post grafting, CD sorted neurons with or without adalimumab) was “Robust functional recovery”. Moreover, in experiment [3] (adalimumab co-injected mDA neurons, 1-6 months), the “time course and completeness of functional rescue vs CD sorted neurons alone” value is “trend towards an earlier and more complete functional rescue”. In experiment [4] (setting [5]), the “fraction of CALB1 expressing A10 dopamine neuron subtype” value is given as “without affecting” and the “proportion of ALDH1A1+ A9 mDA neuron subtype” value is recorded as “significant increase”. In addition, in experiment [4] (setting [6]), the overall graft size result was “significantly increased” and the “total numbers of surviving dopamine neurons (TH)” value is listed as “significantly increased”.
